Like-named read-outs stand apart in the source and are kept apart here.
Experiments:
[1] = system: III-B strain of HIV-1; experiment: microbe, parasite or virus in culture; format: cell-based
Description: (§1) C8166 cells. Cells were grown in RPMI 1640 with 10% calf serum. 4×10^4 cells per microtiter plate well were mixed with 5-fold dilutions of compound prior to addition of 10 CCID50 units of III-B strain of HIV-1 and incubated for 5–7 days (Betbeder et al. Antiviral Chem. Chemother. 1, 241–247, 1990). Formation of syncytia was examined from 2 days post-infection. Culture fluid was collected at 5–7 days and gp120 antigen production measured by ELISA (Mahmood and Hay, J. Immunol. Meth., 151, 9–13, 1992). […] Cell viability of infected and uninfected cells were assessed by the MTT-Formazen method (Pauwels et al. J. Virol. Meth. 20, 309–321, 1988).
(§2) Each assay was carried out in duplicate, on at least two separate occasions, and data quoted are the average of each separate assay.

[2] = system: HIV-2; experiment: Inhibition of HIV-2 in CEM/TK- cells; format: cell-based
Procedure, shortened: (§3)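 Trypan blue staining of MT-4 cultures on day 5 gave viable cell numbers; CEM cultures were checked microscopically for giant cells on day 4. Both cell types were infected at 100 CCID50/mL (5×10^5 cells/mL) and incubated with compound dilutions.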

[3] = target: HIV RT (Human immunodeficiency virus type 1 group M subtype B, UniProt P03366); experiment: Inhibition of HIV reverse transcriptase; format: biochemical; settings: Table 4
[4] = system: HIV-1; experiment: microbe, parasite or virus in culture
Procedure, shortened: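 Infection used 100 CCID50 per mL on 5×10^5 cells/mL, followed by exposure to serial compound dilutions. Read-out: microscopic giant cell scoring after 4 days (CEM); trypan blue viable cell count after 5 days (MT-4).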

[5] = system: HIV-2; experiment: Inhibition of HIV-2 in CEM cells (giant cell formation); format: cell-based
Procedure, shortened: as §3

[6] = system: HIV1 d4T-Resistant; experiment: HIV1 in HeLa cells, d4T-resistant strain; format: cell-based, HIV-1; settings: read-out: EC50 HeLa HIV1 d4T-Resistant
[7] = system: HIV1 d4T-Sensitive; experiment: HIV1 in HeLa cells, d4T-sensitive strain; format: cell-based, HIV-1; settings: Table 4
[8] = system: C8166 cells; experiment: Toxicity in C8166 cells (MTT-Formazen); format: cell-based; settings: Table 3
Description: as §1, §2

[9] = system: HIV-1; experiment: Inhibition of HIV-1 in MT4 cells; format: cell-based; settings: Table 6; mean of two or more repeat experiments; read-out: HIV1 MT4: EC50 for inhibition of HIV-1 in MT4 cells
Description: (§4) Cells were infected with HIV-1 as previously described [Balzarini et al. AIDS (1991), 5, 21–28]. Briefly, 5×10^5 cells per milliliter were infected with HIV-1 or HIV-2 at 100 CCID50 (50% cell culture infective dose) per milliliter of cell suspension. Then 100 μL of the infected cell suspension was transferred to microtiter plate wells and mixed with 100 μL of the appropriate dilutions of the test compounds. After 4 days giant cell formation was recorded microscopically in the HIV-infected cell cultures [CEM], and after 5 days the number of viable cells was determined by trypan blue staining of the HIV-infected cell cultures [MT4].
(§5) The data columns are, in order: • HIV1 MT4: EC50 in μM for inhibition of HIV-1 in MT4 cells. • HIV2 MT4: EC50 in μM for inhibition of HIV-2 in MT4 cells. • CC50 MT4: CC50 in μM for toxicity to MT-4 cells. • HIV1 CEM: EC50 in μM for inhibition of HIV-1 in CEM cells. • HIV2 CEM: EC50 in μM for inhibition of HIV-2 in CEM cells. • HIV2 CEM-TK-: EC50 in μM for inhibition of HIV-2 in CEM/TK^− cells. • CC50 CEM: CC50 in μM for toxicity to CEM cells. • EC50 MSV: EC50 in μM for inhibition of MSV • MCC MSV: Minimum cytotoxic concentration in MSV assay

[10] = system: CEM cells; experiment: Toxicity to CEM cells; format: cell-based, human; settings: Table 6; mean of two or more repeat experiments
[11] = system: HIV-2; experiment: Inhibition of HIV-2 in MT4 cells; format: cell-based; settings: Table 6; mean of two or more repeat experiments; read-out: HIV2 MT4: EC50 for inhibition of HIV-2 in MT4 cells
Description: as §4, §5

[12] = system: MT-4 cells; experiment: Toxicity to MT-4 cells; format: cell-based, human; settings: Table 6; mean of two or more repeat experiments; read-out: CC50 MT4: CC50 for toxicity to MT-4 cells
Description: as §4, §5

[13] = system: HIV-1 (GB8 or IIIB strains); experiment: Anti-HIV-1 activity in JM cells; format: cell-based; settings: Human immunodeficiency virus 1, IIIB; HIV1 in JM; Table 2
Description: as §1
JM cells JM cells, which are relatively resistant to the antiviral effects of AZT and a number of its derivatives, were infected with HIV-1 strains and the antiviral and toxic effects of compounds assessed as for C8166 cells. Both GB8 or IIIB strains of HIV1 were used, with no delectable differences in the end-points noted.
as §2

[14] = Toxicity in C8166 cells (MTT-Formazen); format: cell-based; settings: human, Table 3
Description: as §1, §2

[15] = system: Moloney Sarcoma Virus [MSV]; experiment: MSV-induced tumour formation and survival in NMRI mice; format: in vivo; settings: MSV infected mice; 50 [low] or 200 [high] mg/kg/day i.p. for 4 days
Description: Drug doses are 50[low ] or 200 [high] mg/kg/day given i.p. for 4 days starting 1 hour before MSV inoculation.
In Vivo Testing Inhibitory Effects of Test Compounds on the Initiation of MSV-Induced Tumour Formation in NRMI Mice and on the Survival of MSV Innoculated NMRI Mice.
Mice infected with Moloney Sarcoma Virus [MSV] were treated daily with either placebo, or d4T [at one of two doses] or with compound 324 at one of the same [equi-molar] doses.
Two- to three-day old NMRI mice (weighing—2 gram) were innoculated subcutaneously (s.c.) in the left hind leg with 50 μl MSV (100 foci forming units, as measured by in vitro determination of the virus-induced transformation of murine C3H embryo fibroblast cells). At 4 to 5 days post-infection, tumours develop and rapidly increase in volume upon further aging of the mice. Within 10 to 12 days post-infection, mice (then weighing—5 to 6 gram) die from the viral infection. Drug treatment started 1 hour prior to infection of the virus, and further compound administration was given daily i.p. for an additional 3 days. The mean day of tumour initiation (±standard deviation) and the mean day of survival of the mice (±standard deviation) was calculated and statistical significance of the average delay of tumour formation and the mean day of survival in the treated groups versus the untreated (control) group was assessed by two-tailed student's t-test.

[16] = Human immunodeficiency virus 1, C8166, Table 4, read-out: EC50 8166 HIV1
[17] = Human immunodeficiency virus 1, CCRF-CEM, read-out: EC50 CEM HIV1
[18] = Table 6, mean of two or more repeat experiments, read-out: HIV2 CEM: EC50 for inhibition of HIV-2 in CEM cells
[19] = HIV1 in C8166 cells, Table 3, read-out: Activity EC50
[20] = Table 4, read-out: EC50 8166 HIV1
[21] = Table 4, read-out: EC50 CEM TK− HIV2
[22] = Table 6, mean of two or more repeat experiments, read-out: HIV2 CEM-TK-: EC50 for inhibition of HIV-2 in CEM/TK^− cells
[23] = read-out: EC50 CEM HIV1, Table 4
[24] = read-out: HIV1 CEM: EC50 for inhibition of HIV-1 in CEM cells, Table 6, mean of two or more repeat experiments
[25] = Human immunodeficiency virus 2, CEM-TK(-), read-out: EC50 CEM TK^−
[26] = Human immunodeficiency virus 1, HeLa

Structure (SMILES) | EC50 [1, 16] [nM] | EC50 HIV RT [3] | EC50 [4, 17] [nM] | EC50 [5, 18] [nM] | EC50 ([6]; Table 4) [nM] | EC50 [7] [nM] | Selectivity CC50/EC50 × 10^3 [1] | EC50 [1, 19] [nM] | EC50 [1, 20] [nM] | EC50 [2, 21] [nM] | EC50 [2, 22] [nM] | CC50 [8] [µM] | EC50 [9] [nM] | EC50 [4, 23] [nM] | EC50 [4, 24] [nM] | CC50 [10] [µM] | EC50 [11] [nM] | CC50 [12] [µM] | further results
Cc1cn([C@H]2C[C@H](N=[N+]=[N-])[C@@H](CO)O2)c(=O)[nH]c1=O [AZT, 3′-azido-3′-deoxythymidine, reference compound] | 8 | Inactive | 3 |  |  |  |  |  |  |  |  |  |  |  |  |  |  |  | EC50 ([2]; Human immunodeficiency virus 2, CEM-TK(-), Table 4, read-out: EC50 CEM TK− HIV2): > 100000 nM
COC(=O)C(C)NP(=O)(OCC1C=CC(n2cc(C)c(=O)[nH]c2=O)O1)Oc1cccc(C(F)(F)F)c1 (stereo not drawn) [Compound 526, 2′,3′-dideoxy-2′,3′-didehydrothymidine 5′-(m-trifluromethylphenylmethoxyalaninyl) phosphoramidate] |  |  |  | 150 | 50 | 40 | 250 × 10^3 | 0.8 | 0.8 | 60 | 120 | 200 | 50 | 80 | 150 | 30 | 110 | 10 | 
COC(=O)C(C)NP(=O)(OC[C@@H]1C=C[C@H](n2cc(C)c(=O)[nH]c2=O)O1)Oc1cc(Cl)cc(Cl)c1 (stereo partly drawn) [Compound 546, 2′,3′-dideoxy-2′,3′-didehydrothymidine 5′-(3,5-dichlorophenylmethoxyalaninyl) phosphoramidate] |  |  |  | 150 | 40 | 30 | 100 × 10^3 | 1 | 1 | 60 | 120 | 100 | 37 | 60 | 120 | 26.9 | 120 | 10.5 | 
Cc1cn(C2C=CC(COP(=O)(NC(Cc3ccccc3)C(=O)OCc3ccccc3)Oc3ccccc3)O2)c(=O)[nH]c1=O (stereo not drawn) [Compound 866, 2′,3′-dideoxy-2′,3′-didehydrothymidine-5′-(phenyl N-methoxyglycinyl) phosphoramidate] |  |  |  | 6000 |  |  | >1.25 × 10^3 | 800 |  |  | 7000 | > 1000 | 1300 |  | 6000 | ≥ 250 | 6700 | ≥ 250 | 
COC(=O)C(CCSC)NP(=O)(OCC1C=CC(n2cc(C)c(=O)[nH]c2=O)O1)Oc1ccccc1 (stereo not drawn) [Compound 867, 2′,3′-dideoxy-2′,3′-didehydrothymidine-5′-(phenyl N-methoxymethioninyl) phosphoramidate] |  |  |  | 800 |  |  | >62.5 × 10^3 | 1.6 |  |  | 340 | > 1000 | 200 |  | 600 | ≥ 250 | 400 | 22 | 
Cc1cn([C@H]2C=C[C@@H](CO)O2)c(=O)[nH]c1=O [d4T, 2′,3′-dideoxy-2′,3′-didehydrothymidine, reference compound] | 80 | Inactive | 500 |  |  |  | 0.6 × 10^3 |  |  |  |  |  |  |  |  |  |  |  | EC50 [5, 25]: 1200 nM; EC50 [6, 26]: 3380 nM; EC50 [7, 26]: 860 nM; EC50 ([1]; Human immunodeficiency virus 1, HIV1 in C8166, Table 2, read-out: EC50 C8166): 80 nM; EC50 ([1]; Human immunodeficiency virus 1, HIV1 in C8166 cells, Table 3, read-out: Activity EC50): 80 nM; EC50 [2, 25]: > 100000 nM; EC50 ([2]; Human immunodeficiency virus 2, CEM-TK(-), read-out: EC50 CEM TK− HIV2): > 100000 nM; EC50 [13]: 800 nM; CC50 [14]: 50 µM; delay in death [15]: failed to give any detectable delay; delay in tumour appearance [15]: failed to give any detectable delay

— US7018989B2, “Chemical compounds” (University College Cardiff Consultants, LTD, priority 1995, dated 2006)
